Results on 8 molecules are retold here after PMC3951324, “Side Chain Hydrophobicity Modulates Therapeutic Activity and Membrane Selectivity of Antimicrobial Peptide Mastoparan-X” (PLoS ONE, 2014).

In data set [1] the test system is human red blood cells (RBCs). Description: Haemolysis assay. The class given is cell-based. To be noted: for % haemolysis: human RBCs; for H5, concentration at which 5% haemolysis has been obtained: purified human erythrocytes, assay as in Etzerodt et al. [14]. An excerpt: All Fmoc (9H-fluoren-9-yl-methyloxycarbonyl) L-amino acids and HATU (1-[Bis(dimethylamino)methylene]-1H-1,2,3-triazolo[4,5-b]pyridinium 3-oxid hexafluorophosphate, N-[(Dimethylamino)-1H-1,2,3-triazolo-[4,5-b]pyridin-1-ylmethylene]-N-methylmethanaminium hexafluorophosphate N-oxide) were purchased from GLS China (GL Biochem, Shanghai, China). Fmoc-2-amino-decanoic acid was obtained from Watanabe Chemical Industries, Ltd (Hiroshima, Japan). Lys and Trp were side-chain-protected as tert-butoxycarbonyl, Asn was sidechain protected with trityl. Tentagel resin was purchased from NovaBiochem (Merck, Darmstadt, Germany). TFA (trifluoroacetic acid), TIS (triisopropylsilane), HEPES (N-(2-hydroxyethyl)piperazine-N-(2-ethanesulfonic acid)), 2,4,6-collidine and pyrene were purchased from Sigma-Aldrich (Brøndby, Denmark). Pyridine, sodium hydroxide pellets and sodium chloride was purchased from J.T. Baker Chemicals (Phillipsburg, NJ, USA). Filter supports and Hamilton extrusion syringes, POPG (1-palmitoyl-2-oleoyl-sn-glycero-3-[phospho-rac-(1-glycerol)] sodium salt), and POPC (1-palmitoyl-2-oleoyl-sn-glycero-3-phosphocholine) were purchased from Avanti Polar Lipids (Alabaster, AL). All compounds were used without further purification. Membrane filters for extrusion (100 nm pore size, polycarbonate) were purchased from Whatman (Maidstone, UK). Cuvettes (4×10 mm, quartz, Suprasil) were purchased from Hellma (Müllheim, Germany). Purified human erythrocytes for the haemolysis studies were provided by Bioneer (Hørsholm, Denmark), and were stored at 4°C for a maximum of three days before use.
The assay was conducted as described in Etzerodt et al..

Data set [2] has as its system Escherichia coli, strain INV-α. Description: Determination of minimal inhibitory concentration (MIC). The class given is cell-based. To be noted: LB medium, 37°C, 20 h, shaking, peptide 0.05–50 µM, absorbance 570 nm, triplicates. As to the method:
(§1) A stock dilution series with ten points, ranging from 1 µM to 1 mM, was prepared in sterile PBS from freshly dissolved peptides. The dilution series was dispensed in triplicates in 96-deepwell microtiter plates (VWR Denmark, Herlev, Denmark), with 15 µl in each well. Multidispensing with electronic pipettes (Biohit, Tåstrup, Denmark) was used throughout. Lactococcus lactis, strain MG1363 (ATCC, LGC Standards AB, Boras, Sweden) and Escherichia coli, strain INV-α (Invitrogen, Nærum, Denmark) were grown in M9 (Sigma Aldrich, Brøndby, Denmark) and LB medium (Difco, BD Biosciences, Brøndby Denmark), respectively. A single colony was grown overnight at 30°C and 37°C for L.lactis and E.coli respectively. The next day, a fresh culture was started with a twenty-fold dilution of the cells and grown for exactly 60 min (optical density was approximately 0.4 at 570 nm). The cell culture was diluted (300 fold for L.lactis and 1000 fold for E.coli) before adding 150 µl to microtiter plates already containing 15 µl peptide solution and 135 µl fresh medium. […] Plates with L.lactis were sealed with lid and parafilm, and plates with E.coli were sealed with a gas-permeable tape (VWR Denmark, Herlev, Denmark). The plates were incubated at the respective temperatures for 20 hours with shaking (150 rpm). For each measurement, 100 µl of the cell culture was transferred to clear, flat-bottomed microtiter plates, and the absorbance at 570 nm was determined using a Victor3 plate reader (Perkin Elmer, Skovlunde, Denmark). The measurement was conducted in triplicates.

Data set [3] deals with Lactococcus lactis, strain MG1363. The data set is described as above. The class given is cell-based. As to conditions: strain MG1363, M9 medium, 30°C, 20 h, shaking; peptide 0.05–50 µM; absorbance 570 nm; triplicates. As to the method:
as §1

Data set [4] in a line: Peptide partitioning by ITC. The class given is physicochemical. As to conditions: 37°C; for partition coefficient of insertion Kins/10^5: 10 mM POPC∶POPG (3∶1) LUVs into 20 µM peptide, pH 7.4, Gouy-Chapman-Stern fit, value is Kins divided by 10^5, triplicates; for effective partition coefficient Keff/10^8: derived from Kins, zeff and the surface potential of fully charged membrane (25 mol% negative charge), value is Keff divided by 10^8. As to the method:
Lipid stock solutions of POPC and POPG were prepared in chloroform∶methanol (9∶1). Mixtures of POPC∶POPG (3∶1) were prepared and the organic solvent was evaporated under a gentle stream of nitrogen. The lipid films were kept in vacuum (P<0.1 Pa) overnight in order to remove the residual solvent. Buffer containing 10 mM HEPES and 100 mM sodium chloride (pH 7.4) was added to the lipid films, and they were hydrated for 60 min followed by extrusion through 100 nm using an Avanti mini-extruder. Dynamic Light Scattering (DLS, Brookhaven Instrument Corporation, ZetaPALS) was used for measuring the liposome size distribution. The effective lipid concentration was determined by inductively coupled plasma atomic emission spectroscopy (ICP-AES Vista AX, Varian).
The partitioning of AMPs onto lipid membranes was investigated by isothermal titration calorimetry (ITC, iTC200, Microcal, 204 µL cell volume). For the peptide analogues MPX, Ala1 and Ala14, 10 mM […] (3∶1) LUVs were injected (19×2 µL) into a 20 µM peptide solution at T = 37°C. The speed of the stirrer was 1000 rpms, and all titration were initiated with a 0.5 µL pre-injection. The heat-traces were integrated using custom made software, and the heat of partitioning was analysed using a partitioning isotherm based on Gouy-Chapman-Stern description of the electrostatic interaction of the peptide and membrane, [32]. The effective charge of the peptide (zeff), the partitioning coefficient of insertion (Kins), the molar enthalpy of partitioning ( [drawing 4] ), and the heat of dilution (qdil) were extracted as fitting parameters. The effective partitioning coefficient was derived as [drawing 5] where F is Faradays constant, [drawing 6] is the electrostatic potential evaluated at the interface of a fully charged membrane (25mol% negative charge before insertion of the first peptide), and R is the ideal gas constant. The instrument was electrically calibrated, and blank titration of LUVs into buffer was performed to ensure that heat of dilution could be modelled as a constant in the data analysis. Each titration was conducted in triplicates.
(Isothermal titration calorimetry measures the heat released or taken up as one component is titrated into another.)

≈ marks a conversion by molar mass, not a printed value. Square brackets hold non-standard residues; d marks the D form. Ends that are not written are not given here. Peptide text beside a SMILES is read from it. * marks the point of attachment. ξ: configuration not given here. ξGly(octyl) = CCCCCCCCC(N)C(=O)O; Octanoyl = CCCCCCCC(=O)*; Propionyl = CCC(=O)*

In the case of `CCCCCCCCC(NC(=O)[C@H](C)NC(=O)[C@@H](NC(=O)CNC(=O)[C@H](CCCCN)NC(=O)[C@H](Cc1c[nH]c2ccccc12)NC(=O)[C@H](CC(N)=O)NC(=O)[C@@H](N)[C@@H](C)CC)[C@@H](C)CC)C(=O)N[C@@H](CCSC)C(=O)N[C@@H](C)C(=O)N[C@@H](CCCCN)C(=O)N[C@@H](CCCCN)C(=O)N[C@@H](CC(C)C)C(=O)N[C@@H](CC(C)C)C(N)=O` (stereo partly shown) [Adec8] (H-INWKGIA[ξGly(octyl)]MAKKLL-NH2), in data set [1] (50 µM peptide), the “% haemolysis” value was “full haemolysis”. Besides, the “H5, concentration at which 5% haemolysis has been obtained” value in data set [1] came out at 1 ± 1 µM. Moreover, the “MIC (E. coli)” value in data set [2] was determined as 4.2 ± 0.8 µM (≈ 6.95 µg/mL). Besides, the “MIC (L. lactis)” value in data set [3] is 4.2 ± 0.8 µM (≈ 6.95 µg/mL).

On to `CCC(=O)N[C@H](C(=O)N[C@@H](CC(N)=O)C(=O)N[C@@H](Cc1c[nH]c2ccccc12)C(=O)N[C@@H](CCCCN)C(=O)NCC(=O)N[C@H](C(=O)N[C@@H](C)C(=O)N[C@@H](C)C(=O)N[C@@H](CCSC)C(=O)N[C@@H](C)C(=O)N[C@@H](CCCCN)C(=O)N[C@@H](CCCCN)C(=O)N[C@@H](CC(C)C)C(=O)N[C@@H](CC(C)C)C(N)=O)[C@@H](C)CC)[C@@H](C)CC` [PAMPX] (Propionyl-INWKGIAAMAKKLL-NH2), for which the “% haemolysis” value in data set [1] (50 µM peptide) is recorded as 10%. In data set [1], the “H5, concentration at which 5% haemolysis has been obtained” value was 25 ± 1 µM. In addition, the “MIC (E. coli)” value in data set [2] stood at 21 ± 4 µM (≈ 33.9 µg/mL). Further, the “MIC (L. lactis)” value in data set [3] is 3.3 ± 0.8 µM (≈ 5.32 µg/mL).

`CCCCCCCCC(N)C(=O)N[C@@H](CC(N)=O)C(=O)N[C@@H](Cc1c[nH]c2ccccc12)C(=O)N[C@@H](CCCCN)C(=O)NCC(=O)N[C@H](C(=O)N[C@@H](C)C(=O)N[C@@H](C)C(=O)N[C@@H](CCSC)C(=O)N[C@@H](C)C(=O)N[C@@H](CCCCN)C(=O)N[C@@H](CCCCN)C(=O)N[C@@H](CC(C)C)C(=O)N[C@@H](CC(C)C)C(N)=O)[C@@H](C)CC` (stereo partly shown) [Adec1] (H-[ξGly(octyl)]NWKGIAAMAKKLL-NH2): the “% haemolysis” value in data set [1] (50 µM peptide) is on record as “full haemolysis”. Further, in data set [1], the “H5, concentration at which 5% haemolysis has been obtained” value came to 0.7 ± 0.1 µM. Besides, the “MIC (E. coli)” value in data set [2] came out at 3.3 ± 0.8 µM (≈ 5.32 µg/mL). Further, in data set [3], the “MIC (L. lactis)” value was 1.7 ± 0.4 µM (≈ 2.74 µg/mL).

As to ANWKGIAAMAKKLL-NH2 [Ala1], in data set [4], the “partition coefficient of insertion Kins/10^5” value was determined as 1.1±0.1 and the “effective partition coefficient Keff/10^8” value came out at 25±7. In data set [1] (50 µM peptide), the “% haemolysis” value is given as around 1.5%. For the same molecule, the “% haemolysis” value in data set [1] (200 µM peptide) is around 4%. Besides, the “H5, concentration at which 5% haemolysis has been obtained” value in data set [1] was 230 ± 10 µM. Also, the “MIC (E. coli)” value in data set [2] turned out to be 33 ± 8 µM. Moreover, the “MIC (L. lactis)” value in data set [3] is 18 ± 7 µM.

With INWKGIALMAKKLL-NH2 [Leu8], the “H5, concentration at which 5% haemolysis has been obtained” value in data set [1] was found to be 14 ± 2 µM. Besides, in data set [2], the “MIC (E. coli)” value is 7 ± 3 µM. Further, in data set [3], the “MIC (L. lactis)” value was 2.5 ± 1.3 µM.

On to `CCCCCCCC(=O)N[C@H](C(=O)N[C@@H](CC(N)=O)C(=O)N[C@@H](Cc1c[nH]c2ccccc12)C(=O)N[C@@H](CCCCN)C(=O)NCC(=O)N[C@H](C(=O)N[C@@H](C)C(=O)N[C@@H](C)C(=O)N[C@@H](CCSC)C(=O)N[C@@H](C)C(=O)N[C@@H](CCCCN)C(=O)N[C@@H](CCCCN)C(=O)N[C@@H](CC(C)C)C(=O)N[C@@H](CC(C)C)C(N)=O)[C@@H](C)CC)[C@@H](C)CC` [OAMPX] (Octanoyl-INWKGIAAMAKKLL-NH2), for which the “% haemolysis” value in data set [1] (50 µM peptide) was “full haemolysis”. In data set [1], the “H5, concentration at which 5% haemolysis has been obtained” value turned out to be 1.1 ± 0.3 µM. In addition, the “MIC (E. coli)” value in data set [2] was 5 ± 1 µM (≈ 8.41 µg/mL). Besides, the “MIC (L. lactis)” value in data set [3] turned out to be 3.3 ± 0.8 µM (≈ 5.55 µg/mL).

Turning to `CCCCCCCCC(NC(=O)[C@H](CC(C)C)NC(=O)[C@H](CCCCN)NC(=O)[C@H](CCCCN)NC(=O)[C@H](C)NC(=O)[C@H](CCSC)NC(=O)[C@H](C)NC(=O)[C@H](C)NC(=O)[C@@H](NC(=O)CNC(=O)[C@H](CCCCN)NC(=O)[C@H](Cc1c[nH]c2ccccc12)NC(=O)[C@H](CC(N)=O)NC(=O)[C@@H](N)[C@@H](C)CC)[C@@H](C)CC)C(N)=O` (stereo partly shown) [Adec14] (H-INWKGIAAMAKKL[ξGly(octyl)]-NH2), in data set [1] (50 µM peptide), the “% haemolysis” value is given as “full haemolysis”. In addition, the “H5, concentration at which 5% haemolysis has been obtained” value in data set [1] is 0.8 ± 0.2 µM. Besides, the “MIC (E. coli)” value in data set [2] was determined as 3.3 ± 0.8 µM (≈ 5.32 µg/mL). In data set [3], the “MIC (L. lactis)” value turned out to be 1.7 ± 0.4 µM (≈ 2.74 µg/mL).

In the case of INWKGIAAMAKKLA-NH2 [Ala14], in data set [4], the “partition coefficient of insertion Kins/10^5” value is on record as 1.4±0.3 and the “effective partition coefficient Keff/10^8” value is reported as 1.1±0.2. Moreover, the “% haemolysis” value in data set [1] (50 µM peptide) is around 1.5%. Further, the “% haemolysis” value in data set [1] (200 µM peptide) was around 4%. Also, the “H5, concentration at which 5% haemolysis has been obtained” value in data set [1] turned out to be 220 ± 20 µM. Moreover, the “MIC (E. coli)” value in data set [2] is 33 ± 8 µM. For the same molecule, the “MIC (L. lactis)” value in data set [3] amounted to 21 ± 4 µM.
